Assay results taken from US6949522B2, “β-2′- or 3′-halonucleosides” (Pharmasset, Inc., priority 2001, dated 2005).
Where two headings read alike, the source gives them in different places.

Experiments:
β-actin gene = type: cell-based, human; conditions: human, 7 days, 10 μM
Protocol: (§1) Low passage number HepG2 cells, obtained from American Tissue Culture Collection (ATCC, Manassas, Va.) were seeded at 5,000 cells/well in collagen-coated 96-well plates. Test compounds were added to the media to obtain a final concentration of 10 μM. On culture day 7, cellular nucleic acids were prepared by using commercially available columns (RNeasy 96 kit, Qiagen). […] The mitochondrial cytochrome C oxidase subunit II (COXII) gene and the β-actin or rRNA gene were amplified from 5 μL with a multiplex Q-PCR protocol using the suitable primers and probes for both target and reference (designed using the Primer Express software, Applied Biosystems); • for COXII. • sense primer 5′-[…]-3′ (Sequence 7); • probe 5′-TET-[…]-TAMRA-3′ (Sequence 8); and • antisense probe 5′-[…]-3′ (Sequence 9); • for exon 3 of β-actin (GenBank E01094): • sense primer 5′-[…]-3′ (Sequence 10); • probe 5′-6FAM-[…]-TAMRA-3′ (Sequnece 11); and • antisense probe 5′-[…]-3′ (Sequence 12).
(§2) The rRNA gene primers and probes were purchased from Applied Biosystems. Standard curves using 1-log diluted total HepG2 DNA were linear over more than 5 logs. In addition, efficiencies of target (COXII DNA) and reference (β-actin DNA or rRNA) amplification were approximately equal, because the slope of the ΔCt line (Ct β-actin minus Ct mitochondrial) was less than 0.1 (not shown). Since equal amplification efficiencies were obtained for both genes, the comparative cycle threshold (Ct) method was used to investigate potential inhibition of the mitochondrial DNA polymerase γ. The comparative Ct method uses arithmetic formulas in which the amount of target (COXII gene) is normalized to an endogenous reference (β-actin gene or rRNA gene) and is relative to a calibrator (no drug control at day 7). The arithmetic formula for this approach is given by 2-ΔΔCt (User bulletin # 2, Applied Biosystems).
(§3) In order to study the consequences of possible inhibitory effects of these compounds on host DNA polymerases, nuclear and rnitochondrial DNA levels were quantified and compared to no-treatment controls. Cells were incubated for 7 days with 10 μM of each compound, followed by total nucleic acid extractions and multiplex Q-PCR of the rRNA gene and the mitochondrial COXII gene. Nucleic acids from cells exposed to the control compounds were also amplified in multiplex for mitDNA and the β-actin gene. The results are presented in Table 4 using the comparative Ct method.

[1] = tested on: mitochondrial cytochrome C oxidase subunit II (COXII) gene; type: cell-based, human; conditions: HepG2, 10 μM, 7 days
Source text: The Q-RT-PCR technology was also used to evaluate potential mitochondrial γ-DNA polymerase inhibition by the compounds of the present invention in relevant human cells. […] Since active nucleoside compounds in the triphosphate form lack a 3′-OH, thereby stopping virus replication by chain termination, there is a concern that these nucleoside analogues are also substrates for the human DNA polymerase γ, resulting in inhibition of mitochondrial DNA replication and subsequently toxic side effects (11, 19). In an attempt to provide direct quantifiable data on mitochondrial DNA levels intracellular, a Q-PCR technology was designed and relative quantification of COXII DNA levels were calculated using the comparative Ct method. […] Also, in agreement with previous observations, no changes in normalized mitochondrial DNA levels were observed after FIAU and D4T treatment (6, 8, 23).
as §1, §2, §3

HIV-1 LAI (wild type) [2] = experiment: HIV-1 Q-RT-PCR assay in human PBM cells, strain LAI; type: cell-based; conditions: 5 days, viral RNA reduced by 90%
Protocol: (§4) Human PBM cells (1×10^6 cells/T25 flask) were PHA stimulated for 2 or 3 days, and infected with either a wild type (LAI and xxBRU) or a 3TC-resistant (xxBRU 184V) HIV-1 strain at 100 TCID50, as previously described (27). The culture was kept for 5 days in presence of test compounds at serial 1-log dilutions. Subsequently, human PBM cells were removed from the culture supernatant by centrifugation (10 minutes, 400×g, 4° C.). This clarified supernatant was tested either in the RT-assay, or in the Q-RT-PCR assay.
(§5) Viral RNA present in the culture supernatant was prepared using commercially available columns (QIAamp Viral RNA mini Kit, Qiagen, Valencia, Calif.). Viral RNA was detected in real-time by monitoring increases in fluorescence signal that resulted from degradation of a quenched fluorescent probe molecule following the hybridization of the probe to the arnplified viral DNA (TaqMan 7700 chemistry, Applied Biosystems, Foster City, Calif.). The TaqMan probe and primers were designed using the Primer Express software (Applied Biosystems); they cover highly conserved sequences complementary to an 81 base pair long fragment from the HIV-1 RT gene between codon 230 and 257 of the group MHIV-1 genome; • probe 5′-6FAM-[…]-TAMRA-3′ (Sequence 1) • sense primer: 5′-[…]-3′ (Sequence 2); and • antisense primer 5′-[…]-3′ (Sequence 3).
(§6) A total of 5 μL RNA was RT-amplified using reagents and conditions as described by the manufacturer (Applied Biosystems). […] Copy numbers were calibrated using the Roche Amplicor HIV-1 Monitor test™ (Roche Diagnostics, Branchburg, N.J.) on a 1-log dilution series of a clinical HIV-1 genotype B isolate (attenuated in vitro to obtain a high viral load). The 10-6 diluted sample became positive at threshold cycle (Ct=PCR cycle threshold where a sample becomes detectable)=35.52, which corresponded to 1,410 copies/mL in the Roche monitor HIV-1 version II assay. When validated over a dynamic range of 3 logs of virus, there was excellent correlation (r2˜1) between the two methodologies. […] Therefore, the currently designed primer and probe set allowed reliable quantification of both clinical samples and HIV-1 in vitro preparations.
(§7) HIV-1 present in culture supernatant fluids was quantified by two different methodologies: i) the Q-RT-PCR with read-out in log copies/mL; and ii) the endogenous viral RT assay on cell supernatant with read-out in log counts per minute/mL (CPM/mL). Upon addition of antiviral compounds to the culture media, a dose-related decrease in virus production was observed. Although the two methodologies measured different parameters (viral RNA versus active RT enzyme), results were not markedly different from each other. The HIV-1 Q-RT-PCR results were compared with a previously established cell-based antiviral drug evaluation assay (endogenous HIV-1 RT polymerization activity in cell supematant)(27).

human PBM cells = experiment: Toxicity assay (MTS/MTT dye), human PBM cells; conditions: read-out: Cytotoxicity PBM IC50; human PBM cells, 5 days incubation
Protocol: (§8) After a three day-incubation for HepG2, or 5 days for human PBM cells, cell viability and mitochondrial activity were measured in a colorimetric assay using the MTS- or MTT dye method (Promega, Madison, Wis.).

HIV-1 xxBRU (wild type) [3] = experiment: HIV-1 Q-RT-PCR assay in human PBM cells, strain xxBRU; type: cell-based; conditions: 5 days, viral RNA reduced by 90%
Protocol: as §4, §5, §6, §7

HIV-1 xxBRU (wild type) [4] = experiment: HIV-1 RT-assay on supernatant of acutely infected human PBM cells, strain xxBRU; type: cell-based; conditions: 5 days, RT activity reduced by 90%
Protocol: as §4
(§9) Virus particles present in a 1 mL aliquot of culture supernatant were concentrated by high-speed centrifugation (2 hours, 20,000×g, 4° C.). The supernatant was then removed and the virus pellet was dispensed into a 100 μL virus solubilization buffer (VSB: 0.5% Triton X-100; 0.8 M NaCl, 0.5 mM phenylmethylsulfonyl, 20% glycerol, 50 mM Tris.HCl pH 7.8). A 10 μL aliquot of RT-VSB was mixed with 75 μL RT cocktail (60 mM Tris.HCl pH 7.8, 12 mM MgCl2, 6 mM DTT, 6 μg/mL poly (rA)n-oligo (dT)10-12, 1.2 mM dATP, and 80 μCi/mL 3H-TTP) and incubated for 2 hours at 37° C. Subsequently 100 μL of 10% TCA was added, and the total amount of incorporated 3H-TTP was determined.
as §7

HIV-1 LAI (wild type) [5] = experiment: HIV-1 RT-assay on supernatant of acutely infected human PBM cells, strain LAI; type: cell-based; conditions: 5 days, RT activity reduced by 90%
Protocol: as §4, §9, §7

BVDV (strain NADL) = experiment: BVDV Q-RT-PCR assay in MDBK cells; type: cell-based, bovine viral diarrhea virus; conditions: MDBK cells, 24 hour incubation, viral RNA in supernatant, read-out: BVDV assay Q-PCR EC90
Protocol: Madin-Darby Bovine Kidney (MDBK) cells were maintained in DMEM/F12 supplemented with 10% heat-inactivated horse serum at 37° C. in a humidified, 5% CO2 atmosphere. Cells were seeded in 96-well plates at 5×10^3 cells/wcll and incubated for 1 hour. BVDV (strain NADL) was used to infect the cells in monolayer at MOI 0.02. After 45 minutes of infection, the viral inoculum was removed and the cells were washed twice. Media or media containing test compound was added to these cells, followed by 24 hour incubation. Cell supernatant fluids were collected, clarified by centrifugation (2 minutes, 3,000 g, room temperature) and viral RNA was prepared (QIAamp Viral RNA mini Kit, Qiagen). Viral RNA was detected in real-time RT-PCR.

HepG2 = experiment: Toxicity assay (MTS/MTT dye), HepG2 cells; conditions: for Cytotoxicity HepG2 IC30: HepG2, three day-incubation (Table 1)
Protocol: as §8

[6] = tested on: 3TC-resistant (xxBRU 184V) HIV-1; experiment: HIV-1 Q-RT-PCR assay in human PBM cells, strain xxBRU 184V; type: cell-based; conditions: for EC90: human PBM cells, 5 days, viral RNA reduced by 90%, read-out: Q-RT-PCR HIV-1 assay 184V EC90
Protocol: as §4, §5, §6, §7

[7] = tested on: 3TC-resistant (xxBRU 184V) HIV-1; experiment: HIV-1 RT-assay on supernatant of acutely infected human PBM cells, strain xxBRU 184V; type: cell-based; conditions: for EC90: human PBM cells, 5 days, RT activity reduced by 90%, read-out: RT-Assay 184V EC90
Protocol: as §4, §9, §7

in vitro [8] = conditions: human
Protocol: as §8

HBV = HBV Q-PCR assay in HepAD38 (AD38) cells; type: cell-based, hepatitis B virus; conditions: AD38 cells, 5-day incubation, HBV DNA in supernatant, read-out: HBV assay Q-PCR EC90
Protocol: The HepAD38 cell line replicates HBV under conditions that can be regulated with tetracycline (12, 15). In the presence of this drug, the cell supernatant is virtually free of viral DNA, but upon the removal of tetracycline from the culture medium, these cells secrete virus-like particle into the supernatant (12). HepAD38 cells were seeded at 5×10^4 cells/well in a 96-well plate in seeding medium (DMEM/F12+10% FBS, 50 μg/mL penicillin, 50 μg/mL streptomycin, 100 μg/mL kanamycin, 400 μg/mL G418, and 0.3 μg/mL tetracycline) and incubated for 2 days at 37° C. in a 5% CO2 humid atmosphere. The seeding media was removed, and cells were washed 3 times with PBS. Cells were then incubated with 200 μL assay medium (DMEM/F12+10% FBS+P/S/K) containing either no compound, test compound, or control drugs at 10 μM. After a 5-day incubation, the cell supernatant was collected and stored at −70° C. until HBV DNA was quantified. HBV DNA was extracted from supernatant using QiaAmp DNA blood Mini kit (Qiagen) and nucleic acids eluted in 200 μL. Viral DNA was detected in Q-PCR. The TaqMan probe and primers were designed using the Primer Express software (Applied Biosystems) and cover highly conserved sequences complementary to the DNA sequences present in HBsAg (24). A total of 5 μL DNA was amplified using reagents and conditions as described by the manufacturer (Applied Biosystems). […]

in vitro [9] = conditions: human; remark: listed apart in the source
Protocol: as §8

| Compound | EC90 (HIV-1 LAI (wild type) [2]) | EC90 (HIV-1 xxBRU (wild type) [3]) | EC90 (HIV-1 xxBRU (wild type) [4]) | EC90 (HIV-1 LAI (wild type) [5]) | EC90 (BVDV (strain NADL)) | Cytotoxicity HepG2 IC30 (HepG2) | Q-RT-PCR HIV-1 assay FI, fold increase (EC90 HIV-1184V/EC90 HIV-1xxBRU) [6] | EC90 [6] | RT-Assay FI, fold increase (EC90 HIV-1184V/EC90 HIV-1xxBRU) [7] | EC90 [7] | EC90 (HBV) | other results |
| --- | --- | --- | --- | --- | --- | --- | --- | --- | --- | --- | --- | --- |
| Nc1nc2c(ncn2COCCO)c(=O)[nH]1 [ACV, 9-(2-hydroxyethoxymethyl)guanine] |  |  |  |  |  |  |  |  |  |  |  | Average ΔCt ± SD β-actin DNA (β-actin gene): 0.17 ± 0.01; COXIINβ-actin DNA (range) relative to control ([1]; COXII DNA normalized to β-actin DNA, 2-ΔΔCt): 1.45 (1.34-1.52); Average ΔCt ± SD COXII DNA [1]: −0.37 ± 0.08; Average ΔΔCt ± SD COXII-β-actin [1]: −0.54 ± 0.06 |
| Nc1nc(=O)n([C@H]2C=C[C@@H](CO)O2)cc1F [D-D4FC, β-D-2′,3′-didehydro-2′3′-dideoxy-5-fluorocytidine, reference compound] | 0.38 µM | 0.22 µM | 0.08 µM | 0.18 µM | > 200 µM | >100 µM | 0.97 | 0.21 µM | 1.9 | 0.15 µM |  | IC50 (human PBM cells): 80 µM; IC50 (HepG2; read-out: Cytotoxicity HepG2 IC50, HepG2, three day-incubation (Table 3)): > 100 µM |
| NC(=O)c1ncn([C@@H]2O[C@H](CO)[C@@H](O)[C@H]2O)n1 [Ribavirin, 1-β-D-ribofuranosyl-1H-,1,2,4-triazole-3-carboxamide, reference compound] |  |  |  |  |  |  |  |  |  |  |  | IC50 at 5 days (in vitro [8]): > 100 µM; EC90 (HBV; Hepatitis B virus, HePAD38, 120 h): > 100 µM; EC90 (BVDV (strain NADL); Bovine viral diarrhea virus isolates and strains): 5 µM; IC50 at 3 days (in vitro [9]): 90 µM |
| β-D-2′,3′-didehydro-2′,3.′-dideoxy-3′-fluoro-5-fluoro cytidine [Compound 10-F] | 36.3 µM | 34.8 µM | 37.5 µM | 34.5 µM | > 200 µM | >100 µM |  | > 100 µM | 13.2 | 494 µM | > 100 µM |  |
| β-L-2′,3′-didehydro-2′,3.′-dideoxy-3′-fluoro-5-fluoro cytidine [Compound 23-F] | 0.09 µM | 0.16 µM | 0.14 µM | 0.12 µM | > 200 µM | >100 µM | 333 | 53 µM | 479 | 67 µM | 68 µM |  |
